Source: publication PMC3124400 (International Journal of Nanomedicine, 2011)

How the values were obtained:
[1] = cited from earlier work
[2] = In vitro release by dynamic dialysis method; type: physicochemical; details: dialysis bag control

Compound	Increase in oral bioavailability ([1]; fenofibrate in fast-dissolving solid dispersion formulation) [fold]	Enhancement of oral bioavailability ([1]; fenofibrate in liposomes containing sodium deoxycholate) [fold]	Time for complete diffusion of CyA in solution across the dialysis bag [2] [h]
CC(C)OC(=O)C(C)(C)Oc1ccc(C(=O)c2ccc(Cl)cc2)cc1 [fenofibrate]	4.4	5.13	–
Cyclosporine A [CyA]	–	–	≤ 1
